65 compounds from patent publication US11872225B2, “Pyruvate kinase modulators and use thereof” (Agios Pharmaceuticals, Inc., priority 2017, dated 2024) can be followed below.

Sequence of wild type PKM2 (P14618 whole entry): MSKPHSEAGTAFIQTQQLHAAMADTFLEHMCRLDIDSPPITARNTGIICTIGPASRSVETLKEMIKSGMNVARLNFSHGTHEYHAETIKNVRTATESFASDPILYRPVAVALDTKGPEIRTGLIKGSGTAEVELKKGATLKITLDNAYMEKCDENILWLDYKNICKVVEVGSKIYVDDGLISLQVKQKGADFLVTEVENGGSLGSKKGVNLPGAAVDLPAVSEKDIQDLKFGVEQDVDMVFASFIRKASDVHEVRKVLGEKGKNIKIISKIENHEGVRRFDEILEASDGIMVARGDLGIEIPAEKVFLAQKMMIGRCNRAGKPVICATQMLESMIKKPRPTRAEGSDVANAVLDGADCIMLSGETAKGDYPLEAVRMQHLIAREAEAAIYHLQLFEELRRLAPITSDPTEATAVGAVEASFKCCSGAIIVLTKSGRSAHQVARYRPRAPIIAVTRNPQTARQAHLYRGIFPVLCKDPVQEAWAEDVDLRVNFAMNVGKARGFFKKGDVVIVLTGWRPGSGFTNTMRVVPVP

In the assay the target is wild type PKM2 (Homo sapiens, UniProt P14618). The experiment in a line: PKM2 Assay (LDH/NADH-coupled, absorbance at 340 nm). Format: biochemical. The note with it: wild type PKM2 activation; 60 min preincubation at 25° C.; ADP 0.4 mM, PEP 0.11 mM; read-out: PKM2 WT AC50. Here is the method:
A compound described herein may be tested for its ability to activate PKM2. For simplicity, the activation activity of these compounds is represented as an AC50 in Table 2. In Tables 2, a compound described herein may have an AC50 of wild type PKM2.
PKM2 enzyme stock solution was diluted to prepare a 1.11× Reaction Mix (without ADP). 1 μL of test compound was first added to the wells followed by 40 μL of 1.11× Reaction Mix (without ADP) and incubated at room temperature (25° C.) for 60 min. The reaction was initiated with 10 μL ADP (0.4 mM final concentration), bringing the final Reaction Mix to 1×, and the reaction progress was measured as changes in absorbance at 340 nm wavelength at room temperature.
Test compound preparation: Test compounds were prepared at 50× final concentration in DMSO. 1 to 3 dilutions were made for 11 points (for example 50 μL of 5000 μM compound was added to 100 μL 100% DMSO to yield a 1667 μM, 50 μL of this added to 100 μL DMSO to yield 556 μM, and so forth). The compounds were added to the assay as a 1 to 50 dilution (1 μL in 50 μL) to yield a top concentration of 100 μM, decreasing 3-fold for 11 points.
Reaction Mix: PKM2 (5 ng/well, 0.1 μg/ml), ADP (0.4 mM), PEP (0.11 mM), NADH (180 μM), LDH (0.005 U/μL, Sigma #L3888), 1 mM DTT, 0.03% BSA in 1× Reaction Buffer
Reaction Buffer: 100 mM KCl, 50 mM Tris pH 7.5, 5 mM MgCl2.
With `Cn1c2nc(Cc3ccc(C#N)cc3)sc2c2cnn(Cc3cccc4[nH]ncc34)c(=O)c21` [Compound 33], the concentration at half-maximal activity (AC50) (usually the concentration giving half of the maximal activity seen) was more than 800 nM.

Consider `Cn1c2nc([S+](C)[O-])sc2c2cnn(Cc3cnc(N)nc3)c(=O)c21` (centres unmarked) [Compound 34], for which the AC50 is more than 800 nM.

Turning to `CSc1nc2c(s1)c1cnn(Cc3ccnc(=O)[nH]3)c(=O)c1n2C` [Compound 35], the AC50 was more than 800 nM.

On to `Cn1c2nc([S+](C)[O-])sc2c2cnn(Cc3ccnc(N)n3)c(=O)c21` (centres unmarked) [Compound 36], for which the half-maximal activity concentration (AC50) was in the range of 301 to 800 nM.

As to `Cn1c2nc([S+](C)[O-])sc2c2cnn(Cc3ccc(C(N)=O)cc3)c(=O)c21` (centres unmarked) [Compound 37], the AC50 is more than 800 nM.

Regarding `Cn1c2nc([S+](C)[O-])sc2c2cnn(Cc3cnc(N)s3)c(=O)c21` (centres unmarked) [Compound 38], the AC50 was less than 300 nM.

`C=Cc1nc2c(s1)c1cnn(Cc3cccc4[nH]ncc34)c(=O)c1n2C` [Compound 39]: the AC50 was less than 300 nM.

With `CSc1nc2c(s1)c1cnn(Cc3cn4cccnc4n3)c(=O)c1n2C` [Compound 40], the AC50 is more than 800 nM.

Regarding `CSc1nc2c(s1)c1cnn(Cc3cccc(S(N)(=O)=O)c3)c(=O)c1n2C` [Compound 41], the concentration at half-maximal activity (AC50) was in the range of 301 to 800 nM.

Take `Cn1c2nc(Cc3ccc(C(N)=O)cc3)sc2c2cnn(Cc3cccc4[nH]ncc34)c(=O)c21` [Compound 42]: the concentration at half-maximal activity (AC50) was more than 800 nM.

For the compound `COC(=O)C(C(=O)OC)c1nc2c(s1)c1cnn(Cc3cccc4[nH]ncc34)c(=O)c1n2C` [Compound 43], the AC50 was less than 300 nM.

Take `CSc1nc2c(s1)c1cnn(Cc3ccc(S(N)(=O)=O)cc3)c(=O)c1n2C` [Compound 44]: the AC50 was more than 800 nM.

For the compound `Cn1c2nc(SCc3ccccc3)sc2c2cnn(Cc3cccc4[nH]ncc34)c(=O)c21` [Compound 45], the AC50 is 301 to 800 nM.

Take `CNCc1nc2c(s1)c1cnn(Cc3cccc4[nH]ncc34)c(=O)c1n2C` [Compound 46]: the half-maximal activity concentration (AC50) is less than 300 nM.

In the case of `CSc1nc2c(s1)c1cnn(Cc3csc(-n4c(C)ccc4C)n3)c(=O)c1n2C` [Compound 47], the half-maximal activity concentration (AC50) was more than 800 nM.

On to `Cn1c2nc(C(O)c3ccccn3)sc2c2cnn(Cc3cccc4[nH]ncc34)c(=O)c21` (centres unmarked) [Compound 48], for which the AC50 is more than 800 nM.

For `Cn1c2nc(CN)sc2c2cnn(Cc3cccc4[nH]ncc34)c(=O)c21` [Compound 49], the half-maximal activity concentration (AC50) fell in the range of 301 to 800 nM.

On to `Cn1c2nc(C(c3cccc4[nH]ncc34)S(=O)(=O)c3ccccc3)sc2c2cnn(Cc3cccc4[nH]ncc34)c(=O)c21` (centres unmarked) [Compound 50], for which the AC50 is more than 800 nM.

`COC(=O)C(c1ccccc1)c1nc2c(s1)c1cnn(Cc3cccc4[nH]ncc34)c(=O)c1n2C` (centres unmarked) [Compound 51]: the AC50 is less than 300 nM.

In the case of `Cn1c2nc(Nc3ccccc3)sc2c2cnn(Cc3cccc4[nH]ncc34)c(=O)c21` [Compound 52], the half-maximal activity concentration (AC50) is more than 800 nM.

As to `Cn1c2nc(C3(c4ccccc4)CC3)sc2c2cnn(Cc3cccc4[nH]ncc34)c(=O)c21` [Compound 53], the AC50 is more than 800 nM.

In the case of `Cn1c2nc(C#N)sc2c2cnn(Cc3csc(N)n3)c(=O)c21` [Compound 54], the AC50 is less than 300 nM.

Regarding `Cn1c2nc(Cc3ccc(Cl)nc3)sc2c2cnn(Cc3cccc4[nH]ncc34)c(=O)c21` [Compound 55], the concentration at half-maximal activity (AC50) was more than 800 nM.

Take `Cn1c2nc(Cc3cncnc3)sc2c2cnn(Cc3cccc4[nH]ncc34)c(=O)c21` [Compound 56]: the concentration at half-maximal activity (AC50) is more than 800 nM.

For `Cn1c2nc(Cc3ccncc3)sc2c2cnn(Cc3cccc4[nH]ncc34)c(=O)c21` [Compound 57], the concentration at half-maximal activity (AC50) was more than 800 nM.

For `COC(=O)C(c1cc[nH]n1)c1nc2c(s1)c1cnn(Cc3cccc4[nH]ncc34)c(=O)c1n2C` (centres unmarked) [Compound 58], the half-maximal activity concentration (AC50) is more than 800 nM.

Regarding `Cn1c2nc(Cc3n[nH]cc3C(F)(F)F)sc2c2cnn(Cc3cccc4[nH]ncc34)c(=O)c21` [Compound 59], the AC50 is more than 800 nM.

Regarding `Cn1c2nc(Cc3ccc(=O)[nH]c3)sc2c2cnn(Cc3cccc4[nH]ncc34)c(=O)c21` [Compound 60], the concentration at half-maximal activity (AC50) was more than 800 nM.

Consider `Cn1c2nc(Cc3cc[nH]n3)sc2c2cnn(Cc3ccc(C(N)=O)cc3)c(=O)c21` [Compound 61], for which the AC50 was more than 800 nM.

In the case of `CC(=O)NC(c1cc[nH]n1)c1nc2c(s1)c1cnn(Cc3cccc4[nH]ncc34)c(=O)c1n2C` (centres unmarked) [Compound 62], the AC50 was more than 800 nM.

Regarding `Cn1c2nc(Cc3cc[nH]n3)sc2c2cnn(Cc3ccn[nH]3)c(=O)c21` [Compound 63], the AC50 was less than 300 nM.

As for `Cn1c2nc(NC(=O)Cc3cc[nH]n3)sc2c2cnn(Cc3cccc4[nH]ncc34)c(=O)c21` [Compound 64], the AC50 is more than 800 nM.

For the compound `Cn1c2nc(Cc3cnoc3)sc2c2cnn(Cc3cccc4[nH]ncc34)c(=O)c21` [Compound 65], the concentration at half-maximal activity (AC50) is less than 300 nM.

Turning to `Cn1cc(Cc2nc3c(s2)c2cnn(Cc4cccc5[nH]ncc45)c(=O)c2n3C)cn1` [Compound 66], the AC50 was less than 300 nM.

Regarding `Cn1c2nc(-n3cnc(CS(=O)(=O)c4ccccc4)c3)sc2c2cnn(Cc3cccc4[nH]ncc34)c(=O)c21` [Compound 67], the half-maximal activity concentration (AC50) was more than 800 nM.

Regarding `Cn1c2nc(Cc3cc[nH]n3)sc2c2cnn(Cc3csc(CO)n3)c(=O)c21` [Compound 68], the half-maximal activity concentration (AC50) was less than 300 nM.

As to `Cn1c2nc(Cc3cc[nH]n3)sc2c2cnn(Cc3csc(C(N)=O)n3)c(=O)c21` [Compound 69], the concentration at half-maximal activity (AC50) is less than 300 nM.

In the case of `Cn1c2nc(Cc3cc[nH]n3)sc2c2cnn(Cc3cncs3)c(=O)c21` [Compound 70], the AC50 was less than 300 nM.

As to `CC(=O)c1cccc(CC(c2cc[nH]n2)c2nc3c(s2)c2cnn(Cc4cccc(C(C)=O)c4)c(=O)c2n3C)c1` (centres unmarked) [Compound 71], the concentration at half-maximal activity (AC50) was more than 800 nM.

Turning to `Cn1c2nc(Cc3cc[nH]n3)sc2c2cnn(Cc3ccccc3)c(=O)c21` [Compound 72], the half-maximal activity concentration (AC50) is less than 300 nM.

Turning to `Cc1cccc(Cn2ncc3c4sc(Cc5cc[nH]n5)nc4n(C)c3c2=O)n1` [Compound 73], the AC50 is less than 300 nM.

Take `Cn1c2nc(Cc3cc[nH]n3)sc2c2cnn(Cc3cccc(N)n3)c(=O)c21` [Compound 74]: the AC50 is less than 300 nM.

For the compound `Cn1c2nc(Cc3cc[nH]n3)sc2c2cnn(Cc3csc(N)n3)c(=O)c21` [Compound 75], the half-maximal activity concentration (AC50) is less than 300 nM.

As to `Cn1c2nc(Cc3cc[nH]c(=O)c3)sc2c2cnn(Cc3cccc4[nH]ncc34)c(=O)c21` [Compound 76], the AC50 is less than 300 nM.

Consider `Cn1c2nc(Cc3cc[nH]n3)sc2c2cnn(Cc3cccc4nn[nH]c34)c(=O)c21` [Compound 77], for which the half-maximal activity concentration (AC50) was less than 300 nM.

Take `Cn1c2nc(Cc3cc[nH]n3)sc2c2cnn(Cc3nccs3)c(=O)c21` [Compound 78]: the half-maximal activity concentration (AC50) is less than 300 nM.

For the compound `Cn1c2nc(Cc3csc(C(N)=O)n3)sc2c2cnn(Cc3cccc4[nH]ncc34)c(=O)c21` [Compound 79], the AC50 is more than 800 nM.

With `COc1ncc(Cc2nc3c(s2)c2cnn(Cc4cccc5[nH]ncc45)c(=O)c2n3C)cn1` [Compound 80], the AC50 is less than 300 nM.

For the compound `Cn1c2nc(Cc3cnc(O)nc3)sc2c2cnn(Cc3cccc4[nH]ncc34)c(=O)c21` [Compound 81], the concentration at half-maximal activity (AC50) was more than 800 nM.

For `Cn1c2nc(Cc3ccns3)sc2c2cnn(Cc3cccc4[nH]ncc34)c(=O)c21` [Compound 82], the concentration at half-maximal activity (AC50) was 301 to 800 nM.

`Cn1ccc(Cn2ncc3c4sc(Cc5cc[nH]n5)nc4n(C)c3c2=O)n1` [Compound 83]: the AC50 is less than 300 nM.

Consider `Cn1c2nc(Cc3cc[nH]n3)sc2c2cnn(Cc3cccc4c3CCN4)c(=O)c21` [Compound 85], for which the concentration at half-maximal activity (AC50) was less than 300 nM.

Regarding `Cn1c2nc(Cc3cnn[nH]3)sc2c2cnn(Cc3cccc4[nH]ncc34)c(=O)c21` [Compound 86], the AC50 was less than 300 nM.

With `Cn1c2nc(Cc3cc[nH]n3)sc2c2cnn(Cc3cscn3)c(=O)c21` [Compound 87], the AC50 is less than 300 nM.

With `Cn1c2nc(Cc3cc[nH]n3)sc2c2cnn(Cc3ccc4scnc4c3)c(=O)c21` [Compound 88], the concentration at half-maximal activity (AC50) is less than 300 nM.

In the case of `Cn1c2nc(Cc3cc[nH]n3)sc2c2cnn(Cc3c[nH]nn3)c(=O)c21` [Compound 89], the half-maximal activity concentration (AC50) is less than 300 nM.

Take `Cn1c2nc(Cc3csc(CO)n3)sc2c2cnn(Cc3cc[nH]n3)c(=O)c21` [Compound 90]: the AC50 is less than 300 nM.

Turning to `Cn1c2nc(Cc3ccccn3)sc2c2cnn(Cc3nccs3)c(=O)c21` [Compound 91], the AC50 was less than 300 nM.

Turning to `Cn1c2nc(Cc3ccccn3)sc2c2cnn(Cc3cc[nH]n3)c(=O)c21` [Compound 92], the concentration at half-maximal activity (AC50) is less than 300 nM.

Take `Cn1c2nc(Cc3csc(CO)n3)sc2c2cnn(Cc3nccs3)c(=O)c21` [Compound 93]: the AC50 is less than 300 nM.

As for `Cn1c2nc(Cc3cc[nH]n3)sc2c2cnn(Cc3ncns3)c(=O)c21` [Compound 94], the half-maximal activity concentration (AC50) is less than 300 nM.

On to `Cn1c2nc(Cc3cc[nH]n3)sc2c2cnn(Cc3ncsc3C(F)(F)F)c(=O)c21` [Compound 95], for which the concentration at half-maximal activity (AC50) is more than 800 nM.

On to `Cn1ccc(Cn2ncc3c4sc(Cc5cscn5)nc4n(C)c3c2=O)n1` [Compound 96], for which the AC50 is less than 300 nM.

As for `Cn1c2nc(Cc3c[nH]nn3)sc2c2cnn(Cc3ccccc3)c(=O)c21` [Compound 97], the concentration at half-maximal activity (AC50) is more than 800 nM.

As to `Cn1c2nc(Cc3cc[nH]n3)sc2c2cnn(Cc3cccc4c3NS(=O)(=O)N4)c(=O)c21` [Compound 98], the AC50 lay in the range of 301 to 800 nM.
